Test results: patent publication US20250230193A1, “CYCLIC COMPOUND HAVING SELECTIVE KRAS INHIBITORY EFFECT ON HRAS AND NRAS” (CHUGAI SEIYAKU KABUSHIKI KAISHA, priority 2022, published 2025)
Where a SMILES comes first, the peptide text is derived from it. Bridges are numbered along the chain shown (N, C = ends). [ ]: non-standard residue; d: D form. hPhe(3-Cl-4-CF3) = N[C@@H](CCc1ccc(C(F)(F)F)c(Cl)c1)C(=O)O; NPrPhe(4-CF3) = CCCN[C@@H](Cc1ccc(C(F)(F)F)cc1)C(=O)O; NMeGly(cPent) = CN[C@H](C(=O)O)C1CCCC1; Pro(4,4-F2) = O=C(O)[C@@H]1CC(F)(F)CN1; NMeD = CN[C@@H](CC(=O)O)C(=O)O; NMeL = CN[C@@H](CC(C)C)C(=O)O; Ac4c = NC1(C(=O)O)CCC1; Sar = CNCC(=O)O

Columns and labels:
[1] = target: GDP-bound NRAS wild-type protein (Homo sapiens, UniProt P01111); test: Binding to NRAS by surface plasmon resonance (SPR), Single Cycle Kinetics; details: for NRAS/KRAS (ratio of KD value for NRAS to KD value for KRAS) / NRAS/KRAS (ratio of KD value with respect to NRAS to KD value with respect to KRAS): GDP-bound NRAS wild-type vs GDP-bound KRAS wild-type
[2] = target: GDP-bound HRAS wild-type protein (Homo sapiens, UniProt P01112); test: Binding to HRAS by surface plasmon resonance (SPR), Single Cycle Kinetics; details: for HRAS/KRAS (ratio of KD value for HRAS to KD value for KRAS) / HRAS/KRAS (ratio of KD value with respect to HRAS to KD value with respect to KRAS): GDP-bound HRAS wild-type vs GDP-bound KRAS wild-type
Chain of GDP-bound HRAS wild-type protein (P01112 whole entry): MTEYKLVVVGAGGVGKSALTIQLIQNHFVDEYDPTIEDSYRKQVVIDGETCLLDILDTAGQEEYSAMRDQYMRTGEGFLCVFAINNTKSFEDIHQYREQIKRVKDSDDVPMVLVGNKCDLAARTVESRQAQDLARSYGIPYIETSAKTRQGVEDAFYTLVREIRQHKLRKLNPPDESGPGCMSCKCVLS

Chain of GDP-bound NRAS wild-type protein (P01111 whole entry): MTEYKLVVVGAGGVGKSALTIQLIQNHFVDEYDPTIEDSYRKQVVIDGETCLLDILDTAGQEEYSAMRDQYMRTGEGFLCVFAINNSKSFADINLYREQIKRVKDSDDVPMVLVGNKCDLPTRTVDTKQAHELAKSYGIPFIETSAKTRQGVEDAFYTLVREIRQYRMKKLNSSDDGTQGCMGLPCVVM

In the case of `CCCN(C)C(=O)[C@@H]1CC(=O)N(C)[C@@H](CC2CC2)C(=O)N[C@@H]([C@@H](C)CC)C(=O)N(C)CC(=O)N(C)[C@H]2C/C=C\CCN(C2=O)[C@@H](Cc2ccc(C(F)(F)F)cc2)C(=O)N(C)CC(=O)N[C@@H](CCc2cc(F)c(C(F)(F)F)c(F)c2)C(=O)N2C[C@H](OCC)C[C@H]2C(=O)NC2(CC(F)(F)C2)C(=O)N(C)[C@@H](C2CCCC2)C(=O)N1C` [PP1739], the “NRAS/KRAS (ratio of KD value for NRAS to KD value for KRAS)” value ([1]; KD ratio, SPR) is reported as “AA (a compound having 20 or more is denoted as AA)” and the “HRAS/KRAS (ratio of KD value for HRAS to KD value for KRAS)” value ([2]; KD ratio, SPR) is reported as “AA (a compound having 20 or more is denoted as AA)”.

With `CCO[C@@H]1C[C@H]2C(=O)NC3(CC(C)(C)C3)C(=O)N(C)[C@@H](C3CCCC3)C(=O)N(C)[C@H](C(=O)N(C)CC)CC(=O)N(C)[C@@H](CC(C)C)C(=O)N[C@@H]([C@@H](C)CC)C(=O)N(C)CC(=O)N(C)[C@H]3C/C=C\CCN(C3=O)[C@@H](Cc3ccc(C(F)F)cc3)C(=O)N(C)CC(=O)N[C@@H](CCc3ccc(C(F)(F)F)c(Cl)c3)C(=O)N2C1` [PP2829] the “NRAS/KRAS (ratio of KD value with respect to GDP-bound NRAS wild-type protein to KD value with respect to KRAS)” value ([1]; class symbols) was “A (a compound having 10 or more and less than 20 is denoted as A)” and the “HRAS/KRAS (ratio of KD value with respect to GDP-bound HRAS wild-type protein to KD value with respect to KRAS)” value ([2]; class symbols) was “A (a compound having 10 or more and less than 20 is denoted as A)”.

In the case of `CCO[C@@H]1C[C@H]2C(=O)NC3(CCC3)C(=O)N(C)[C@@H](C3CCCC3)C(=O)N(C)[C@H](C(=O)N(C)C)CC(=O)N(C)[C@@H](Cc3cccs3)C(=O)N[C@@H]([C@@H](C)CC)C(=O)N(C)CC(=O)N(C)[C@H]3CCCCCN(C3=O)[C@@H](Cc3ccc(C(F)(F)F)cc3)C(=O)N(C)CC(=O)N[C@@H](CCc3cc(F)c(C(F)(F)F)c(F)c3)C(=O)N2C1` [PP1169], the “NRAS/KRAS (ratio of KD value with respect to NRAS to KD value with respect to KRAS)” value ([1]; KD ratio, SPR) is reported as “B (a compound having 3 or more and less than 10 is denoted as B)” and the “HRAS/KRAS (ratio of KD value with respect to HRAS to KD value with respect to KRAS)” value ([2]; KD ratio, SPR) is reported as “B (a compound having 3 or more and less than 10 is denoted as B)”.

In the case of `CC[C@H](C)[C@@H]1NC(=O)[C@H](CC2CC2)N(C)C(=O)C[C@@H](C(=O)N(C)C)N(C)C(=O)[C@H](C2CCCC2)N(C)C(=O)C2(CC(C)(C)C2)NC(=O)[C@@H]2CC(F)(F)CN2C(=O)[C@H](CCc2cc(F)c(C(F)(F)F)c(F)c2)NC(=O)CN(C)C(=O)[C@H](Cc2ccc(C(F)(F)F)cc2)N2CC/C=C\C[C@@H](C2=O)N(C)C(=O)CN(C)C1=O` [PP1713], the “NRAS/KRAS (ratio of KD value for NRAS to KD value for KRAS)” value ([1]; KD ratio, SPR) is reported as “A (a compound having 10 or more and less than 20 is denoted as A)” and the “HRAS/KRAS (ratio of KD value for HRAS to KD value for KRAS)” value ([2]; KD ratio, SPR) is reported as “A (a compound having 10 or more and less than 20 is denoted as A)”.

In the case of `CCCCO[C@@H]1C[C@H]2C(=O)NC3(CCC3)C(=O)N(C)[C@@H](C3CCCC3)C(=O)N(C)[C@H](C(=O)N3CCOCC3)CC(=O)N(C)[C@@H](CC(C)C)C(=O)N[C@@H]([C@@H](C)CC)C(=O)N(C)CC(=O)N(C)[C@H]3CCCCCN(C3=O)[C@@H](Cc3ccc(C(F)(F)F)cc3)C(=O)N(C)CC(=O)N[C@@H](CCc3cc(F)c(C(F)(F)F)c(F)c3)C(=O)N2C1` [PP1004], the “NRAS/KRAS (ratio of KD value with respect to NRAS to KD value with respect to KRAS)” value ([1]; KD ratio, SPR) is reported as “B (a compound having 3 or more and less than 10 is denoted as B)” and the “HRAS/KRAS (ratio of KD value with respect to HRAS to KD value with respect to KRAS)” value ([2]; KD ratio, SPR) is reported as “B (a compound having 3 or more and less than 10 is denoted as B)”.

In the case of `CCCN1C(=O)CN(C)C(=O)CN(C)C(=O)[C@H]([C@@H](C)CC)NC(=O)[C@@H]2CCCCCOc3ccc(cc3)C[C@H]1C(=O)N(C)CC(=O)N[C@@H](CCc1cc(F)c(C(F)(F)F)c(F)c1)C(=O)N1C[C@H](OCC)C[C@H]1C(=O)NC1(CCCC1)C(=O)N(C)[C@@H](C1CCCC1)C(=O)N(C)[C@H](C(=O)N(C)C)CC(=O)N2C` [PP0895], the “NRAS/KRAS (ratio of KD value with respect to NRAS to KD value with respect to KRAS)” value ([1]; KD ratio, SPR) is reported as “C (A compound having a KD ratio of 0.1 or more and less than 3 is denoted as C)” and the “HRAS/KRAS (ratio of KD value with respect to HRAS to KD value with respect to KRAS)” value ([2]; KD ratio, SPR) is reported as “C (A compound having a KD ratio of 0.1 or more and less than 3 is denoted as C)”.

In the case of `C#CCN1CC(=O)N(C)[C@H]2C/C=C\CCN(C2=O)[C@@H](Cc2ccc(C(F)(F)F)cc2)C(=O)N(C)CC(=O)N[C@@H](CCc2cc(F)c(C(F)(F)F)c(F)c2)C(=O)N2C[C@H](OCC)C[C@H]2C(=O)NC2(CC(C)(C)C2)C(=O)N(C)[C@@H](C2CCCC2)C(=O)N(C)[C@H](C(=O)N(C)C)CC(=O)N(C)[C@@H](CC)C(=O)N[C@@H]([C@@H](C)CC)C1=O` [PP2087], the “NRAS/KRAS (ratio of KD value with respect to NRAS to KD value with respect to KRAS)” value ([1]; SPR) is reported as “A (a compound having 10 or more and less than 20 is denoted as A)” and the “HRAS/KRAS (ratio of KD value with respect to HRAS to KD value with respect to KRAS)” value ([2]; SPR) is reported as “A (a compound having 10 or more and less than 20 is denoted as A)”.

With `CCCN1C(=O)CN(C)C(=O)CNC(=O)[C@H]([C@@H](C)CC)NC(=O)[C@H](CC(C)C)N(C)C(=O)C[C@@H](C(=O)N(C)C)N(C)C(=O)[C@H](C2CCCC2)N(C)C(=O)C2(CCC2)NC(=O)[C@@H]2CC(F)(F)CN2C(=O)[C@H](CCc2ccc(C(F)(F)F)c(Cl)c2)NC(=O)CN(C)C(=O)[C@@H]1Cc1ccc(C(F)(F)F)cc1` [PP0420] ([NMeL]IG[Sar][NPrPhe(4-CF3)][Sar][hPhe(3-Cl-4-CF3)][Pro(4,4-F2)][Ac4c][NMeGly(cPent)][NMeD]-NMe2; lactam N-11) the “NRAS/KRAS (ratio of KD value with respect to GDP-bound NRAS wild-type protein to KD value with respect to KRAS)” value ([1]; SPR) was “B (a compound having 3 or more and less than 10 is denoted as B)” and the “HRAS/KRAS (ratio of KD value with respect to GDP-bound HRAS wild-type protein to KD value with respect to KRAS)” value ([2]; SPR) was “C (A compound having a KD ratio of 0.1 or more and less than 3 is denoted as C)”.
